Measured values from patent publication US10760052B2, “Method of inhibiting tau phosphorylation” (priority 2012, dated 2020).
Read-outs that look alike come from different tables or passages of the source.

Target: T1, mu opiate receptor (MOR) (Rattus norvegicus, UniProt P33535)
T1 construct: from tissue; host or cells: striatum (membrane preparation)
Type: biochemical
Settings: for [35S]GTPγS binding, FLNA-Binding Compound as Agonist at 0.1 μM: 0.1 μM compound; for [35S]GTPγS binding, FLNA-Binding Compound as Agonist at 0.1 μM / [35S]GTPγS binding, FLNA-Binding Compound as Agonist at 1 μM: striatal membranes; for [35S]GTPγS binding, FLNA-Binding Compound as Agonist at 0.1 μM / [35S]GTPγS binding, FLNA-Binding Compound as Agonist at 1 μM + BFNA / [35S]GTPγS binding, FLNA-Binding Compound as Agonist at 1 μM: Series C-2; for [35S]GTPγS binding, FLNA-Binding Compound as Agonist at 1 μM + BFNA: 1 μM compound + 1 μM β-FNA (selective MOR antagonist); for [35S]GTPγS binding, FLNA-Binding Compound as Agonist at 1 μM: 1 μM compound

[1] = [35S]GTPγS binding to Gαo in striatal membranes, compound 0.1 μM
[2] = [35S]GTPγS binding to Gαo in striatal membranes, compound 1 μM
[3] = [35S]GTPγS binding to Gαo in striatal membranes, compound 1 μM plus 1 μM β-funaltrexamine (MOR antagonist)

T1 sequence (P33535 whole entry): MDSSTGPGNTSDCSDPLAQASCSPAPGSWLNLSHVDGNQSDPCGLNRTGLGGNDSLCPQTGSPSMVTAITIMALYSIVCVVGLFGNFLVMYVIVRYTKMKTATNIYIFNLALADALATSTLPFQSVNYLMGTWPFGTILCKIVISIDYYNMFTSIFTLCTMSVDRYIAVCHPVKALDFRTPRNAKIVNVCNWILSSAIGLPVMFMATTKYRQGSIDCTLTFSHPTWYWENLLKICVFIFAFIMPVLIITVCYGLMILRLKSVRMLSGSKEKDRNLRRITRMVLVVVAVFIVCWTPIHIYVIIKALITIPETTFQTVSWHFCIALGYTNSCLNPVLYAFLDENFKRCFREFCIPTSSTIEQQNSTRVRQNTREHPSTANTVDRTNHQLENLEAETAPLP

Row | Structure (SMILES) | % DAMGO (0.1 μM) | % DAMGO (1 μM) | % DAMGO + BFNA | Concentration of FLNA-Binding Compound as Agonist 0.1 μM [1] | Concentration of FLNA-Binding Compound as Agonist 1 μM [2] | Concentration of FLNA-Binding Compound as Agonist 1 μM + BFNA [3] | [35S]GTPγS binding, FLNA-Binding Compound as Agonist at 0.1 μM | [35S]GTPγS binding, FLNA-Binding Compound as Agonist at 1 μM + BFNA | [35S]GTPγS binding, FLNA-Binding Compound as Agonist at 1 μM | Concentration of FLNA-Binding Compound as Agonist 0.1 μM | Concentration of FLNA-Binding Compound as Agonist 1 μM | Concentration of FLNA-Binding Compound as Agonist 1 μM + BFNA
1 | COc1ccc(C(=O)N2CCC3(CC2)OCCN3C(=O)c2ccc(OC)cc2)cc1 [Compound C0017] | 87.1% | 109.7% | 143.2% | 153.8% | 284.5% | 94.1% |  |  |  |  |  | 
2 | COc1ccc(C(=O)N2CCC3(CC2)OCCN3S(=O)(=O)c2ccc(OC)cc2)cc1 [Compound C0018] | 110.7% | 95.5% | 162.1% | 195.5% | 247.7% | 106.5% |  |  |  |  |  | 
3 | COc1ccc(C(=O)N2CCOC23CCN(S(=O)(=O)c2ccc(OC)cc2)CC3)cc1 [Compound C0019] | 59.1% | 68.1% | 80.4% | 104.4% | 176.6% | 52.8% |  |  |  |  |  | 
4 | O=C(O)c1ccc(C(=O)N2CCC3(CC2)OCCN3S(=O)(=O)c2ccc(C(=O)O)cc2)cc1 [Compound C0021] | 94.5% | 87.8% | 546.4% | 159.7% | 192.0% | 90.7% |  |  |  |  |  | 
5 | O=C(c1ccc([N+](=O)[O-])cc1)N1CCC2(CC1)OCCN2S(=O)(=O)c1ccc([N+](=O)[O-])cc1 [Compound C0022] | 113.5% | 123.2% | 25.7% | 194.3% | 328.7% | 13.4% |  |  |  |  |  | 
6 | Nc1ccc(C(=O)N2CCC3(CC2)OCCN3S(=O)(=O)c2ccc(N)cc2)cc1 [Compound C0023] | 89.5% | 87.6% | 44.5% | 153.2% | 233.7% | 23.2% |  |  |  |  |  | 
7 | CNc1ccc(S(=O)(=O)N2CCC3(CC2)OCCN3S(=O)(=O)c2ccc(NC)cc2)cc1 [Compound C0024] | 92.8% | 84.1% | 135.1% | 178.4% | 229.6% | 59.3% |  |  |  |  |  | 
8 | O=S(=O)(c1ccc(Br)cc1)N1CCC2(CC1)OCCN2S(=O)(=O)c1ccc(Br)cc1 [Compound C0025] | 122.6% | 117.5% | 182.7% | 235.7% | 320.7% | 80.2% |  |  |  |  |  | 
9 | COc1ccc(S(=O)(=O)N2CCC3(CC2)NCCO3)cc1 [Compound C0026] | 107.7% | 105.6% | 48.3% |  |  |  | 207.2% | 21.2% | 288.4% |  |  | 
10 | COc1ccc(S(=O)(=O)N2CCOC23CCNCC3)cc1 [Compound C0027] | 121.3% | 115.0% | 164.5% |  |  |  | 233.2% | 72.2% | 313.9% |  |  | 
11 | COC(=O)c1ccc(S(=O)(=O)N2CCC3(CC2)OCCN3S(=O)(=O)c2ccc(C(=O)OC)cc2)cc1 [Compound C0028] | 55.6% | 60.5% | 472.3% | 93.9% | 132.4% | 78.4% |  |  |  |  |  | 
12 | O=S(=O)(c1ccc(F)cc1)N1CCC2(CC1)OCCN2S(=O)(=O)c1ccc(F)cc1 [Compound C0029] | 91.2% | 113.1% | 37.8% | 175.4% | 308.8% | 16.6% |  |  |  |  |  | 
13 | CCCCc1ccc(S(=O)(=O)N2CCC3(CC2)OCCN3S(=O)(=O)c2ccc(CCCC)cc2)cc1 [Compound C0030] | 96.0% | 98.0% | 291.4% | 150.3% | 226.8% | 95.0% |  |  |  |  |  | 
14 | O=C(c1ccc([N+](=O)[O-])cc1)N1CCC2(CC1)OCCN2C(=O)c1ccc([N+](=O)[O-])cc1 [Compound C0032] | 92.8% | 87.3% | 248.2% | 145.4% | 202.0% | 80.9% |  |  |  |  |  | 
15 | O=C(c1ccc([N+](=O)[O-])cc1)N1CCC2(CC1)OCCN2S(=O)(=O)c1ccc([N+](=O)[O-])cc1 [Compound C0033] | 85.9% | 80.6% | 235.0% | 134.5% | 186.4% | 76.6% |  |  |  |  |  | 
16 | NS(=O)(=O)c1ccc(S(=O)(=O)N2CCC3(CC2)OCCN3S(=O)(=O)c2ccc(S(N)(=O)=O)cc2)cc1 [Compound C0034] | 61.3% | 76.7% | 482.5% |  |  |  |  |  |  | 103.6% | 167.9% | 80.1%
17 | O=[N+]([O-])c1ccc(S(=O)(=O)N2CCC3(CC2)NCCO3)cc1 [Compound C0040] | 93.1% | 133.2% | 277.3% |  |  |  | 145.8% | 90.4% | 308.3% |  |  | 
18 | COc1ccc(NC(=O)N2CCC3(CC2)OCCN3S(=O)(=O)c2ccc(OC)cc2)cc1 [Compound C0041] | 110.1% | 111.7% | 575.3% | 186.1% | 244.4% | 95.5% |  |  |  |  |  | 
19 | O=C(OCc1ccccc1)c1ccc(S(=O)(=O)N2CCC3(CC2)OCCN3S(=O)(=O)c2ccc(C(=O)OCc3ccccc3)cc2)cc1 [Compound C0042] | 98.9% | 119.2% | 666.3% | 167.1% | 260.9% | 110.6% |  |  |  |  |  | 
20 | COc1ccc(S(=O)(=O)N2CCOC23CCN(C(=O)OC(C)(C)C)CC3)cc1 [Compound C0043] | 103.8% | 110.9% | 501.8% |  |  |  | 175.4% | 83.3% | 242.6% |  |  | 
